Measurements: the supplement of paper PMC10307832

Columns and labels:
Experiment in all cases: relative viability (nuclei count vs DMSO), 5 days (fraction); higher = more cells survive
XMD14-99 + Foretinib = compound: CN1CCN(CC1)C2=CC(=C(C=C2)NC3=NC(=C(S3)C(=O)C4=C(C=CC=C4Cl)Cl)N)OC [XMD14-99] + COc1cc2c(Oc3ccc(NC(=O)C4(C(=O)Nc5ccc(F)cc5)CC4)cc3F)ccnc2cc1OCCCN1CCOCC1 [Foretinib] (partner 0.25 µM)
Procedure, shortened: (§1)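 Each reported value is a median over duplicate plates. It expresses relative viability: treated-well nuclei count divided by vehicle-well nuclei count. Lung cancer cell lines in 1536-well plates were dosed by pin tool a day after seeding, alone with one drug or with a fixed anchor-drug dose plus five library-drug doses (not always all listed) in √10 steps, and nuclei were counted after 5 days.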

XMD14-99 + Lapatinib = compound: CN1CCN(CC1)C2=CC(=C(C=C2)NC3=NC(=C(S3)C(=O)C4=C(C=CC=C4Cl)Cl)N)OC [XMD14-99] + CS(=O)(=O)CCNCc1ccc(-c2ccc3ncnc(Nc4ccc(OCc5cccc(F)c5)c(Cl)c4)c3c2)o1 [Lapatinib] (partner 2 µM)
Procedure, shortened: as §1

AZD1208 + OSI-027 = compound: N[C@@H]1CCCN(c2c(/C=C3\SC(=O)NC3=O)cccc2-c2ccccc2)C1 [AZD1208] + COc1cccc2cc(-c3nc([C@H]4CC[C@H](C(=O)O)CC4)n4ncnc(N)c34)[nH]c12 [OSI-027] (partner 0.5 µM)
Procedure, shortened: as §1

AZD1208 + Olaparib = compound: N[C@@H]1CCCN(c2c(/C=C3\SC(=O)NC3=O)cccc2-c2ccccc2)C1 [AZD1208] + O=C(c1cc(Cc2n[nH]c(=O)c3ccccc23)ccc1F)N1CCN(C(=O)C2CC2)CC1 [Olaparib] (partner 8 µM)
Procedure, shortened: as §1

Row | Cell Line | relative viability (XMD14-99 + Foretinib; first compound 0.08 µM) | relative viability (XMD14-99 + Foretinib; first compound 0.8 µM) | relative viability (XMD14-99 + Foretinib; first compound 2.53 µM) | relative viability (XMD14-99 + Foretinib; first compound 8 µM) | relative viability (XMD14-99 + Lapatinib; first compound 0.08 µM) | relative viability (XMD14-99 + Lapatinib; first compound 0.8 µM) | relative viability (XMD14-99 + Lapatinib; first compound 2.53 µM) | relative viability (XMD14-99 + Lapatinib; first compound 8 µM) | relative viability (AZD1208 + OSI-027; first compound 0.08 µM) | relative viability (AZD1208 + OSI-027; first compound 0.253 µM) | relative viability (AZD1208 + OSI-027; first compound 0.8 µM) | relative viability (AZD1208 + OSI-027; first compound 2.53 µM) | relative viability (AZD1208 + OSI-027; first compound 8 µM) | relative viability (AZD1208 + Olaparib; first compound 0.08 µM) | relative viability (AZD1208 + Olaparib; first compound 0.253 µM) | relative viability (AZD1208 + Olaparib; first compound 0.8 µM) | relative viability (AZD1208 + Olaparib; first compound 2.53 µM) | relative viability (AZD1208 + Olaparib; first compound 8 µM)
1 | NCI-H23 | 0.908 | 0.981 | 0.843 | 0.821 | 1.08 | 1.29 | 1.14 | 0.881 | 0.576 | 0.705 | 0.523 | 0.37 | 0.382 | 0.321 | 0.324 | 0.292 | 0.298 | 0.279
2 | NCI-H322M | 1.01 | 0.893 | 0.932 | 0.736 | 0.573 | 0.583 | 0.609 | 0.598 | 0.569 | 0.514 | 0.459 | 0.508 | 0.462 | 0.762 | 0.799 |  | 0.726 | 0.834
3 | NCI-H358 | 0.759 | 0.745 | 0.574 | 0.392 | 0.45 | 0.45 | 0.317 | 0.231 | 0.649 | 0.738 | 0.626 | 0.695 | 0.472 | 0.636 | 0.515 | 0.501 | 0.544 | 0.525
4 | NCI-H460 | 1.03 | 1.03 | 1.01 | 0.808 | 0.863 | 0.977 | 0.927 | 0.679 | 0.59 | 0.853 | 0.633 | 0.647 | 0.477 | 0.474 | 0.43 | 0.407 | 0.431 | 0.443
5 | NCI-H520 | 0.711 | 0.712 | 0.662 | 0.501 | 0.845 | 0.88 | 0.834 | 0.652 | 0.207 | 0.258 | 0.189 | 0.179 | 0.188 | 0.357 | 0.278 | 0.271 | 0.287 | 0.252
6 | NCI-H596 | 0.957 | 0.895 | 0.832 | 0.955 | 1.12 | 1.05 | 1.17 | 0.938 | 0.666 | 0.817 | 0.62 | 0.56 | 0.359 | 0.706 | 0.563 | 0.717 | 0.632 | 0.564
7 | NCI-H647 | 1.3 | 1.15 | 1.22 | 1.01 | 1.11 | 1.03 | 1.13 | 0.842 | 0.665 | 0.885 | 0.508 | 0.515 | 0.47 | 0.504 | 0.587 | 0.383 | 0.531 | 0.285
8 | NCI-H650 | 1.05 | 1.01 | 0.944 | 0.935 | 0.92 | 0.956 | 0.663 | 0.774 | 0.574 | 0.435 | 0.477 | 0.394 | 0.398 | 0.401 | 0.392 | 0.388 | 0.359 | 0.379
9 | NCI-H661 | 0.93 | 0.883 | 0.796 | 0.681 | 0.391 | 0.521 | 0.425 | 0.402 | 0.613 | 0.714 | 0.648 | 0.657 | 0.663 | 0.762 | 0.754 | 0.728 | 0.745 | 0.758
